Measured values: BindingDB's records for patent US12391687 (Shanghai Ennovabio Pharmaceuticals, 2025)

Experiments:
[1] = target: High affinity nerve growth factor receptor (Homo sapiens, UniProt P04629); experiment: In Vitro Activity Test on TRKA, TRKB, TRKC Kinase
Description: (§1) Table 1: Experimental MethodThe tested compounds were subjected to 3-fold serial dilution to reach a final concentration of 1 μM to 0.05 nM (10 concentrations), duplicates for each concentration; and the DMSO concentration in the detection reaction was 1%.TRKA Enzyme Reaction:0.2 ng/μL TRKA protein kinase, 1 μM TK Substrate-biotin polypeptide substrate, 14.68 μM ATP, 1×enzymatic buffer, 5 mM MgCl2, and 1 mM DTT. The assay plate was White Proxiplate384-Plus plate (PerkinElmer), and the reaction was incubated at room temperature for 40 min, and the assay volume was 10 μL.TRKB Enzyme Reaction:0.037 ng/μL TRKB protein kinase, 1 μM TK Substrate-biotin polypeptide substrate, 4.77 μM ATP, 1× enzymatic buffer, 5 mM MgCl2, 1 mM MnCl2 and 1 mM DTT. The assay plate was White Proxiplate 384-Plus plate (PerkinElmer), the reaction was incubated at room temperature for 50 min, and the assay volume was 10 μL.TRKC Enzyme Reaction:0.037 ng/μL TRKC protein kinase, 1 μM TK Substrate-biotin polypeptide substrate, 25.64 μM ATP, 1× enzymatic buffer, 5 mM MgCl2, and 1 mM DTT. The detection plate was White Proxiplate 384-Plus plate (PerkinElmer), the reaction was incubated at room temperature for 40 min, and the assay volume was 10 μL.Detection Steps:10 μL of detection reagent (containing 0.125 μM SA-XL665 and 5 μL 1×TK-Antibody) was added to the plate and incubated overnight at room temperature. Synergy Neo 2 was used to read the plate.

[2] = target: NT-3 growth factor receptor (Homo sapiens, UniProt Q16288); experiment: In Vitro Activity Test on TRKA, TRKB, TRKC Kinase
NT-3 growth factor receptor, sequence (Q16288 whole entry): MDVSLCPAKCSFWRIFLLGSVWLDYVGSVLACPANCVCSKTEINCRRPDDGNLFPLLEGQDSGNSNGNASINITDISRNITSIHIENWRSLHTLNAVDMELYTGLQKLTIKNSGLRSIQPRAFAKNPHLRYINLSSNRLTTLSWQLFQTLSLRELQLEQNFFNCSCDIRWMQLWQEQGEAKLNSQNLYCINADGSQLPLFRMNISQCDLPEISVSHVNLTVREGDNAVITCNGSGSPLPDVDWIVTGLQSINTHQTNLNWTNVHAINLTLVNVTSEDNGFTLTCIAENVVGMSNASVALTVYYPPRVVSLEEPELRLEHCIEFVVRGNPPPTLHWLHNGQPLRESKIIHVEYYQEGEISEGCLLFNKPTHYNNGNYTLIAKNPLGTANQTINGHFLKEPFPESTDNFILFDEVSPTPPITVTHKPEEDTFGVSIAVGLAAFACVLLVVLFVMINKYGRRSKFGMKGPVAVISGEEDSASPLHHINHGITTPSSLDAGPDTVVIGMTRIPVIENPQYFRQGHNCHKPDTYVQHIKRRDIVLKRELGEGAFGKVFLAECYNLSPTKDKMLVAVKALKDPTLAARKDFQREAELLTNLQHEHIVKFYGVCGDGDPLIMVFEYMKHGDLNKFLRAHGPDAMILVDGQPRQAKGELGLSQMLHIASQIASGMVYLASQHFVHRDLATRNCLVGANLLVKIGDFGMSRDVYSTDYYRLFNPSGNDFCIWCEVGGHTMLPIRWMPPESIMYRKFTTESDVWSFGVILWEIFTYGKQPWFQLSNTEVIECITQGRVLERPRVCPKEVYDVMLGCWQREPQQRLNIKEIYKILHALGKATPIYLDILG
Description: as §1

[3] = target: BDNF/NT-3 growth factors receptor (Homo sapiens, UniProt Q16620); experiment: In Vitro Activity Test on TRKA, TRKB, TRKC Kinase
BDNF/NT-3 growth factors receptor, sequence (Q16620 whole entry): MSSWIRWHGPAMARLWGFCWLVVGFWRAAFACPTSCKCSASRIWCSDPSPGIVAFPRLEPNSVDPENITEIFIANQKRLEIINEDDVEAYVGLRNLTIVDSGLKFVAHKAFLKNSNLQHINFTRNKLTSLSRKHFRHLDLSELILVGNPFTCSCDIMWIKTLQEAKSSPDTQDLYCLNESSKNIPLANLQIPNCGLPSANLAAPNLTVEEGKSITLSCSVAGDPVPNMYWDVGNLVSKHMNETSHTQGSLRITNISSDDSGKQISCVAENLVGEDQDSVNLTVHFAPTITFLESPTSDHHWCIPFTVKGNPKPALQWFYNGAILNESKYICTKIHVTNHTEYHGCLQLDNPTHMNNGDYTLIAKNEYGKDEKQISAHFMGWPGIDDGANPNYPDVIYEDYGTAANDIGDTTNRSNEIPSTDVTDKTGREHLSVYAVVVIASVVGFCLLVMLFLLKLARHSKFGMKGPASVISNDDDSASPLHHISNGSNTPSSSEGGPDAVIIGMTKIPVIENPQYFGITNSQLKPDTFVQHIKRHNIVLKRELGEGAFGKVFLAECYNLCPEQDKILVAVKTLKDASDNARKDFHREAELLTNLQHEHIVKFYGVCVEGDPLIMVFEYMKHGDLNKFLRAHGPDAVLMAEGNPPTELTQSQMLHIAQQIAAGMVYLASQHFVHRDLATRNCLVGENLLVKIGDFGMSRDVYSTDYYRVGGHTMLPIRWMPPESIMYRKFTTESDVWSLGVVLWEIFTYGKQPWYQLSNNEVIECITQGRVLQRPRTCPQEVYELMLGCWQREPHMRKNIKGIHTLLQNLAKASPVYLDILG
Description: as §1

[4] = target: High affinity nerve growth factor receptor [G595R] (Homo sapiens, UniProt P04629, G595R); experiment: In Vitro Activity Test on Mutant TRKA (G595R)
High affinity nerve growth factor receptor [G595R], sequence (P04629 33-796 G595R limits assumed): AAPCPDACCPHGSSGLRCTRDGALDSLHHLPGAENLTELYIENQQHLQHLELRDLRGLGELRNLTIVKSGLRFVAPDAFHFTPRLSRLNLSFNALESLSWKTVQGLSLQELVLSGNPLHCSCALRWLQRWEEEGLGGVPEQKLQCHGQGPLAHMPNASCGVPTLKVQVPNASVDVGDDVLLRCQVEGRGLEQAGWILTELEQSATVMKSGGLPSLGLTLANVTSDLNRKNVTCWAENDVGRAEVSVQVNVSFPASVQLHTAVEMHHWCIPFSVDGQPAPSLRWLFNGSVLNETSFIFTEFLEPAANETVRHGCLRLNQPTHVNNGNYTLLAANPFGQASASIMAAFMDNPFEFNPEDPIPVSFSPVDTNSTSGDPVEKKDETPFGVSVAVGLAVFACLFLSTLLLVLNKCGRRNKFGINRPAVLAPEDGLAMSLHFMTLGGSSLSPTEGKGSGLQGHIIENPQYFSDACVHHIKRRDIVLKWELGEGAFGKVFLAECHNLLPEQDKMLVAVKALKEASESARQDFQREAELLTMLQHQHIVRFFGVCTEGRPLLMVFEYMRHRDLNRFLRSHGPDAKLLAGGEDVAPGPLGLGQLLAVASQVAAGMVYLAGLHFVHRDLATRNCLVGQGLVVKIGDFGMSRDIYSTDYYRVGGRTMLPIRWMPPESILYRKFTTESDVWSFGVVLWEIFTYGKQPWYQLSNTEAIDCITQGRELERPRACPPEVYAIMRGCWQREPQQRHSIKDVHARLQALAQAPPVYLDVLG
Description: Table 3: Experimental MaterialsThe recombinant human TRKA (G595R), TRKA (G667C) and TRKC (G623R) proteins were purchased from SignalChem. HTRF kinEASE TK kit was purchased from Cisbio Bioassays. Synergy Neo 2 of Biotek was used to read the plate. TRKA (G595R) Enzyme Reaction:0.12 ng/μL TRKA (G595R) kinase, 1 μM TK Substrate-biotin polypeptide substrate, 4.5 μM ATP, 1× enzymatic buffer, 5 mM MgCl2, and 1 mM DTT. The assay plate was White Proxiplate384-Plus plate (PerkinElmer), and the reaction was incubated at room temperature for 30 min, and the assay volume was 10 μL. Detection Steps:10 μL of detection reagent (containing 0.125 μM SA-XL665 and 5 μL 1×TK-Antibody) was added to the plate and incubated overnight at room temperature, and Synergy Neo 2 was used to read the plate.

High affinity nerve growth factor receptor, sequence (P04629 whole entry): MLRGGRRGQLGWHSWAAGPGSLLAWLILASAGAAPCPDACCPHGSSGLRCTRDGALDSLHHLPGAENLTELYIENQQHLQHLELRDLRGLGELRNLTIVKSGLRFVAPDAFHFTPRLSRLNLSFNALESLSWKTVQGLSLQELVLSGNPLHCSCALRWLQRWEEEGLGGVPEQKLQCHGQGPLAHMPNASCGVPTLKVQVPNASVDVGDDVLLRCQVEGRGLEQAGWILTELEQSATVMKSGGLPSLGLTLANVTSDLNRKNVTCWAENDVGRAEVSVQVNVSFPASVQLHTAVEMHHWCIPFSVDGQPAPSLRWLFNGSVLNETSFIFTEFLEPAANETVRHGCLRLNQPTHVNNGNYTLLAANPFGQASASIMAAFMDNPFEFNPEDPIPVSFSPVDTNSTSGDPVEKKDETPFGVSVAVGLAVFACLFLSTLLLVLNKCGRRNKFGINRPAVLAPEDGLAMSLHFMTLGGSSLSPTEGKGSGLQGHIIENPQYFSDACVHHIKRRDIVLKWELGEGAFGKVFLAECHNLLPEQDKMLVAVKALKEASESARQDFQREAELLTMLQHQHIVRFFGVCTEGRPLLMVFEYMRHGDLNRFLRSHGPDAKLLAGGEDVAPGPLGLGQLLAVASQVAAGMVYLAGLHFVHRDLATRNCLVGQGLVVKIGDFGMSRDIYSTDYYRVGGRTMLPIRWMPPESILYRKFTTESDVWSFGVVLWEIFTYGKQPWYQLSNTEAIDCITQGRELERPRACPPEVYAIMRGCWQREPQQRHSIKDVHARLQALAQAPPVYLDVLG

SMILES	IC50 [1]	IC50 [2]	IC50 [3]	IC50 [4]
NC(=O)CCNC(=O)c1cnc2[nH]nc(N3CCC[C@@H]3c3cc(F)ccc3F)c2c1 [US12391687, Example 15]	< 10 nM	< 10 nM	< 10 nM	–
Fc1ccc(F)c([C@H]2C[C@H](F)CN2c2n[nH]c3ncc(-c4cnn(C5CNC5)c4)cc23)c1 [US12391687, Example 26]	< 1 nM	< 1 nM	< 1 nM	–
CC(C)OCc1nnc(-c2cnc3[nH]nc(N4C[C@@H](F)C[C@@H]4c4cc(F)ccc4F)c3c2)o1 [US12391687, Example 42]	< 1 nM	< 1 nM	< 1 nM	–

Continued, values first:

IC50 [1]	IC50 [2]	IC50 [3]	IC50 [4]	SMILES
< 10 nM	< 10 nM	< 10 nM	–	CNC(=O)c1cnc2[nH]nc(N3CCC[C@@H]3c3cc(F)ccc3F)c2c1 [US12391687, Example 7]
–	< 10 nM	< 1 nM	< 10 nM	O=C(Nc1cnc2[nH]nc(N3C[C@@H](F)C[C@@H]3c3cc(F)ccc3F)c2c1)c1ccc(N2CC[C@H](O)C2)nc1 [US12391687, Example 11]
